Earlier results, collected in US8883204B2, “Tamper resistant co-extruded dosage form containing an active agent and an adverse agent and process of making same” (Purdue Pharma L.P., priority 2003, dated 2014).

Conditions: administered orally

SMILES	duration of action [h]
O=C1CC[C@@]2(O)[C@H]3Cc4ccc(O)c5c4[C@@]2(CCN3CC2CC2)[C@H]1O5 [naltrexone]	~24
C[C@H]1[C@H]2Cc3ccc(O)cc3[C@]1(C)CCN2CC1CC1 [cyclazocine]	~24
